Laboratory results: ChEMBL document CHEMBL3421601, “Rapid development of two factor IXa inhibitors from hit to lead” (Bioorg Med Chem Lett, 2015)

How the values were obtained:
Coagulation factor IX = Coagulation factor IX (Homo sapiens, UniProt P00740); assay: Inhibition of human factor 9a using CH3SO2-D-CHG-Gly-Arg-AFC.AcOH as substrate by fluorescence assay
Coagulation factor X = Coagulation factor X (Homo sapiens, UniProt P00742); assay: Inhibition of human factor 10a using n-Acetyl-KPR-AFC as substrate by fluorescence assay
[1] = Inhibition of CYP (unknown origin); assay type: ADME; details: human
[2] = molecular target: Voltage-gated inwardly rectifying potassium channel KCNH2 (Homo sapiens, UniProt Q12809); assay: Inhibition of human ERG
Chain of Voltage-gated inwardly rectifying potassium channel KCNH2 (Q12809 whole entry): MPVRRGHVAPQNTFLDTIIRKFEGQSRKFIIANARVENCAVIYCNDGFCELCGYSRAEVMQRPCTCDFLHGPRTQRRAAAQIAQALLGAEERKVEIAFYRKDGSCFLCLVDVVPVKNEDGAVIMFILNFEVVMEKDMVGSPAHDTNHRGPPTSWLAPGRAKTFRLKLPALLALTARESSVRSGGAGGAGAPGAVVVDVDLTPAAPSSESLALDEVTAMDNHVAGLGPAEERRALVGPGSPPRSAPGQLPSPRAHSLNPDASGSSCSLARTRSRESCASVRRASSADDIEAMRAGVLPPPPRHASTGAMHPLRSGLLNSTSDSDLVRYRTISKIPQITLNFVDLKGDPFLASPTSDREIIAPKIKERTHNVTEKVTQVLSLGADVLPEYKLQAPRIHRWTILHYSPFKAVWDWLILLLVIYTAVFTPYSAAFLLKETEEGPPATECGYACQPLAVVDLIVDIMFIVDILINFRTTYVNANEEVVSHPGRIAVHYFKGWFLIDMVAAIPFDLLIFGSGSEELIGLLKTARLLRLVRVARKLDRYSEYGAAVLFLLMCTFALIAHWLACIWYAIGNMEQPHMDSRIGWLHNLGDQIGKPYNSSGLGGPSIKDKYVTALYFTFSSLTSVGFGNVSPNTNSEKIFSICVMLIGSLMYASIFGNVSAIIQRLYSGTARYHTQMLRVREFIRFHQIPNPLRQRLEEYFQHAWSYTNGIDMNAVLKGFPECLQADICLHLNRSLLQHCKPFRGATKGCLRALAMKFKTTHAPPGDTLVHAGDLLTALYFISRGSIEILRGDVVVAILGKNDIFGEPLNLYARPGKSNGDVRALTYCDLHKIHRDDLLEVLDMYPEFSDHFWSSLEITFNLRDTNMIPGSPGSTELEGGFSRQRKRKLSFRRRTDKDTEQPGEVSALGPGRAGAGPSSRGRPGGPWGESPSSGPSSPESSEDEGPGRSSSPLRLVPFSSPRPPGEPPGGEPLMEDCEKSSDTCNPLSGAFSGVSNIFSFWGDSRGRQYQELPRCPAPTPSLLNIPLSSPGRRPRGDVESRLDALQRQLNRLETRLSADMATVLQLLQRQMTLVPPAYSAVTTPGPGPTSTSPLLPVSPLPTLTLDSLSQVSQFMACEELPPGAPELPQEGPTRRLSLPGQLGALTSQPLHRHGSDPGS

Chain of Coagulation factor IX (P00740 47-191 limits assumed): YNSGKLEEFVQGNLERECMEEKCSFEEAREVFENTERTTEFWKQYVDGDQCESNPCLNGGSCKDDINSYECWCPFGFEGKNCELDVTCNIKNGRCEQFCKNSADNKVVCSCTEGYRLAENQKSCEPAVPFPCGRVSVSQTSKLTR
Chain of Coagulation factor IX (P00740 227-461 limits assumed): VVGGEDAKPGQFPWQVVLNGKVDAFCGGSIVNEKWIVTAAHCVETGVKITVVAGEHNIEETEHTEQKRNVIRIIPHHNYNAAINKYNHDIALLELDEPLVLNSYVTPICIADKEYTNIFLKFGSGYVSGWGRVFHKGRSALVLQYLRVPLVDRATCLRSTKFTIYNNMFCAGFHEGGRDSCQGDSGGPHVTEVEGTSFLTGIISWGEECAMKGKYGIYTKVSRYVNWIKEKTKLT
Chain of Coagulation factor X (P00742 41-179 limits assumed): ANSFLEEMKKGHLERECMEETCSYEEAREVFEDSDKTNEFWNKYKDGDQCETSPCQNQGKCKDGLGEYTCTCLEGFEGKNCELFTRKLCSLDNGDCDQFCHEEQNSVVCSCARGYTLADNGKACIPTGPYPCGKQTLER
Chain of Coagulation factor X (P00742 235-488 limits assumed): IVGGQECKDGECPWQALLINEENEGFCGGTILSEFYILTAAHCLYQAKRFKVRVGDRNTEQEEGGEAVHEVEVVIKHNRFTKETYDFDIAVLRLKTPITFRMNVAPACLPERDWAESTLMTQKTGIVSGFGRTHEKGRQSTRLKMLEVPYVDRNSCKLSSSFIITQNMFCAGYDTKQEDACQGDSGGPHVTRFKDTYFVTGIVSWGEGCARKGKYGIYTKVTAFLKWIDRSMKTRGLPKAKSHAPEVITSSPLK

Row | Structure (SMILES) | Ki (Coagulation factor IX) | other results
1 | Cc1cc2nc([C@@H](CNC(=O)c3ccc(-n4cnnc4)cc3Cl)c3ccccc3)[nH]c2cc1C | 0.016 µM | Ki (Coagulation factor X): 0.39 µM; inhibition (INH) [1]: Not Active; inhibition (INH) [2]: Not Active
2 | Cc1ccc(O)c2c3c(nn12)CCC(C)(NC(=O)c1ccc(-n2ccnc2)cc1Cl)C3 (configuration not stated) | 0.595 µM | 
3 | Cc1cc2nc(CCNC(=O)c3ccc(-n4ccnc4)cc3Cl)[nH]c2cc1C | 5.58 µM | 
4 | Cc1cc2nc(C(C)CNC(=O)c3ccc(-n4cnnc4)cc3Cl)[nH]c2cc1C (racemic) | 0.34 µM | 
5 | Cc1ccc(O)c2c3c(nn12)CCC(C)(NC(=O)c1ccccc1Cl)C3 (configuration not stated) | 6.34 µM | 
6 | Cc1cc2nc(CCNC(=O)c3ccc(-n4cncn4)cc3Cl)[nH]c2cc1C | 2.12 µM | 
7 | Cc1cc2nc(CCNC(=O)c3ccc(-n4nccn4)cc3Cl)[nH]c2cc1C | > 145 µM | 
8 | Cc1ccc(O)c2c3c(nn12)CCC(C)(NC(=O)c1ccc(C#N)cc1F)C3 (configuration not stated) | 2 µM | Ki (Coagulation factor X): > 62.5 µM
9 | Cc1cc2nc(CCNC(=O)c3ccccc3-n3cnnc3)[nH]c2cc1C | > 145 µM | 
10 | Cc1cc2nc(CCNC(=O)c3ccc(-n4ccnn4)cc3Cl)[nH]c2cc1C | 130 µM | 
11 | Cc1ccc(O)c2c3c(nn12)CCC(C)(NC(=O)c1ccc(-n2cnnc2)cc1Cl)C3 (configuration not stated) | 0.09 µM | Ki (Coagulation factor X): 12 µM; inhibition (INH) [1]: Not Active; inhibition (INH) [2]: Not Active
12 | Cc1cc2nc([C@H](CNC(=O)c3ccc(-n4cnnc4)cc3Cl)c3ccccc3)[nH]c2cc1C | 0.52 µM | 
13 | Cc1ccc(O)c2c3c(nn12)CCC(C)(NC(=O)c1ccc(-n2nccn2)cc1Cl)C3 (configuration not stated) | 30.3 µM | 
14 | Cc1ccc(O)c2c3c(nn12)CCC(C)(NC(=O)c1ccc(-n2cncn2)cc1Cl)C3 (configuration not stated) | 0.156 µM | 
15 | Cc1cc2nc(CCNC(=O)c3ccc(-n4cnnc4)cc3)[nH]c2cc1C |  | Ki (Coagulation factor X): > 62.5 µM
16 | Cc1cc2nc(CCNC(=O)c3ccc(C#N)cc3F)[nH]c2cc1C | > 145 µM | 

Further lines, with some results ahead:

Row | Ki (Coagulation factor IX) | Structure (SMILES) | other results
17 | 4.4 µM | Cc1ccc(O)c2c3c(nn12)CCC(C)(NC(=O)c1ccc(-n2cccn2)cc1Cl)C3 (configuration not stated) | 
18 | 131 µM | Cc1ccc(O)c2nc(CCNC(=O)c3ccc(-n4cnnc4)cc3Cl)[nH]c12 | 
19 | 35 µM | Cc1cc2nc(C[C@@H](C)NC(=O)c3ccc(-n4cnnc4)cc3Cl)[nH]c2cc1C | 
20 | > 145 µM | Cc1cc2nc(CCNC(=O)c3ccccc3Cl)[nH]c2cc1C | 
21 | 0.462 µM | Cc1ccc(O)c2c3c(nn12)CCC(C)(NC(=O)c1ccc(-n2ccnn2)cc1)C3 (configuration not stated) | 
22 | 0.937 µM | Cc1ccc(O)c2c3c(nn12)CCC(C)(NC(=O)c1ccc(-n2ccnn2)cc1Cl)C3 (configuration not stated) | 
23 | 55.4 µM | Cc1cc2nc(C[C@H](C)NC(=O)c3ccc(-n4cnnc4)cc3Cl)[nH]c2cc1C | 
24 | 18.3 µM | Cc1ccc(O)c2c3c(nn12)CCC(C)(NC(=O)c1ccc(F)cc1)C3 (configuration not stated) | 
25 | 20.6 µM | Cc1ccc(O)c2c3c(nn12)CCC(C)(NC(=O)c1ccc(C#N)cc1)C3 (configuration not stated) | 
